Experimental data as given in ChEMBL document CHEMBL1938245, “aza-Flavanones as potent cross-species microRNA inhibitors that arrest cell cycle” (Bioorg Med Chem Lett, 2012).
The source made the active and inactive calls. The calls are words filed in the database; no cut-off is given here.

Tests used:
Nucleic Acid [1] = assay: Inhibition of miR-4644 in human MCF7 cells assessed as increase in luminescence at 4 uM after 24 hrs by luciferase reporter gene assay relative to control; format: cell-based
Nucleic Acid [2] = assay: Inhibition of miR-4644 in human HeLa cells assessed as increase in luminescence at 4 uM after 24 hrs by luciferase reporter gene assay relative to control; format: cell-based
Nucleic Acid [3] = assay: Inhibition of miR-4644 in human MCF7 cells assessed as reduction in luminescence at 4 uM after 24 hrs by luciferase reporter gene assay relative to control; format: cell-based
Nucleic Acid [4] = assay: Inhibition of miR-4644 in human HeLa cells assessed as reduction in luminescence at 4 uM after 24 hrs by luciferase reporter gene assay relative to control; format: cell-based
MCF7 [5] = assay: Cell cycle arrest in human MCF7 cells assessed as accumulation at G0/G1 phase at 4 uM after 24 hrs using propidium iodide staining by flow cytometry (reference value: 79%); format: functional
MCF7 [6] = assay: Cell cycle arrest in human MCF7 cells assessed as accumulation at S phase at 4 uM after 24 hrs using propidium iodide staining by flow cytometry (reference value: 9%); format: functional
MCF7 [7] = assay: Cell cycle arrest in human MCF7 cells assessed as accumulation at G2/M phase at 4 uM after 24 hrs using propidium iodide staining by flow cytometry (reference value: 11%); format: functional
[8] = Cytotoxicity against HEK cells; format: cell-based; settings: human, hek293
MCF-10A = assay: Cytotoxicity against human MCF10A cells; format: cell-based
MCF7 [9] = assay: Ratio of IC50 for HEK cells to IC50 for human MCF7 cells
MCF7 [10] = assay: Ratio of IC50 for human MCF10A cells to IC50 for human MCF7 cells
Nucleic Acid [11] = assay: Inhibition of miR14 in Drosophila melanogaster S2 cells at 4 uM after 24 hrs by luciferase reporter gene assay; format: cell-based
Nucleic Acid [12] = assay: Inhibition of Pri-miR-4644 expression in human HeLa cells at 4 uM after 10 mins by qRT-PCR analysis; format: cell-based
Nucleic Acid [13] = assay: Inhibition of mature-miR-4644 expression in human HeLa cells at 4 uM after 10 mins by qRT-PCR analysis; format: cell-based
Nucleic Acid [14] = assay: Inhibition of pri-miR-4644 expression in human MCF7 cells at 4 uM after 10 mins by qRT-PCR analysis; format: cell-based
Nucleic Acid [15] = assay: Inhibition of mature-miR-4644 expression in human MCF7 cells at 4 uM after 10 mins by qRT-PCR analysis; format: cell-based
Nucleic Acid [16] = assay: Inhibition of miR-30A in human HeLa cells assessed as increase in luminescence at 4 uM after 24 hrs by luciferase reporter gene assay relative to control; format: cell-based
Drosophila [17] = assay: Inhibition of miR-14 in transgenic Drosophila larvae assessed as increase in fluorescence in wing disc at 50 uM, po by EGFP reporter gene assay using confocal microscopy relative to control; format: functional, organism-based
Drosophila [18] = assay: Inhibition of miR-14 in transgenic Drosophila larvae expressing EGFP assessed as increase in EGFP protein expression in wing disc at 50 uM, po by Western blot analysis relative to control; format: functional, organism-based
Drosophila [19] = assay: Down regulation of miR-14 in Drosophila larvae at 50 uM, po by qRT-PCR analysis relative to control; format: functional
Drosophila [20] = assay: Down regulation of pri-miR-14 in Drosophila larvae at 50 uM, po by qRT-PCR analysis relative to control; format: functional, organism-based
Drosophila [21] = assay: Down regulation of mature-miR-14 in Drosophila larvae at 50 uM, po by qRT-PCR analysis relative to control; format: functional, organism-based
Drosophila [22] = assay: Down regulation of miR-3 in Drosophila larvae at 50 uM, po by qRT-PCR analysis relative to control; format: functional, organism-based

## O=C1CC(c2ccccc2)Nc2ccccc21 (stereo unspecified)
Nucleic Acid [1]
  inhibition: inactive
Nucleic Acid [2]
  inhibition: inactive

## Cc1cc(C)c(C2CC(=O)c3ccccc3N2)c(C)c1 (stereo unspecified)
Nucleic Acid [3]
  inhibition: 21%
Nucleic Acid [4]
  inhibition: 56%

## Cc1ccc(S(=O)(=O)Oc2ccc(C3CC(=O)c4ccccc4N3)c(OS(=O)(=O)c3ccc(C)cc3)c2)cc1 (stereo unspecified)
Nucleic Acid [3]
  inhibition: 21%
Nucleic Acid [4]
  inhibition: 56%

## COc1ccc(C2CC(=O)c3ccccc3N2)cc1 (stereo unspecified)
Nucleic Acid [1]
  inhibition: inactive
Nucleic Acid [2]
  inhibition: inactive

## O=C1CC(c2c[nH]c3ccccc23)Nc2ccccc21 (stereo unspecified)
Nucleic Acid [3]
  inhibition: 21%
Nucleic Acid [4]
  inhibition: 56%

## O=C1CC(c2ccc(Br)cc2)Nc2ccccc21 (stereo unspecified)
MCF7 [5]
  Activity: 83%
MCF7 [6]
  Activity: 9%
MCF7 [7]
  Activity: 7%
[8]
  Activity: Non-toxic
MCF-10A
  Activity: Non-toxic
MCF7 [9]
  Ratio IC50: 2
MCF7 [10]
  Ratio IC50: 3
Nucleic Acid [11]
  inhibition: Active
Nucleic Acid [1]
  fold change (FC): 3
Nucleic Acid [2]
  fold change (FC): 3
Nucleic Acid [12]
  inhibition: 20%
Nucleic Acid [13]
  inhibition: 20%
Nucleic Acid [14]
  inhibition: 20%
Nucleic Acid [15]
  inhibition: 20%
Nucleic Acid [16]
  inhibition: inactive
Drosophila [17]
  inhibition: Active
Drosophila [18]
  inhibition: Active
Drosophila [19]
  fold change (FC): 5
Drosophila [20]
  Activity: Active
Drosophila [21]
  Activity: Active
Drosophila [22]
  Activity: inactive

## O=C1CC(c2ccc(-c3ccoc3)cc2)Nc2ccccc21 (stereo unspecified)
Nucleic Acid [3]
  inhibition: 21%
Nucleic Acid [4]
  inhibition: 56%

## O=C1CC(c2ccc(O)cc2O)Nc2ccccc21 (stereo unspecified)
MCF7 [5]
  Activity: 85%
MCF7 [6]
  Activity: 8%
MCF7 [7]
  Activity: 7%
[8]
  Activity: Non-toxic
MCF-10A
  Activity: Non-toxic
MCF7 [9]
  Ratio IC50: 2
MCF7 [10]
  Ratio IC50: 3
Nucleic Acid [11]
  inhibition: Active
Nucleic Acid [1]
  fold change (FC): 3
Nucleic Acid [2]
  fold change (FC): 3
Nucleic Acid [12]
  inhibition: 20%
Nucleic Acid [13]
  inhibition: 20%
Nucleic Acid [14]
  inhibition: 20%
Nucleic Acid [15]
  inhibition: 20%
Nucleic Acid [16]
  inhibition: inactive
Drosophila [17]
  inhibition: Active
Drosophila [18]
  inhibition: Active
Drosophila [19]
  fold change (FC): 5
Drosophila [20]
  Activity: Active
Drosophila [21]
  Activity: Active
Drosophila [22]
  Activity: inactive

## CC(=O)Oc1ccc(C2CC(=O)c3ccccc3N2)c(OC(C)=O)c1 (stereo unspecified)
Nucleic Acid [3]
  inhibition: 21%
Nucleic Acid [4]
  inhibition: 56%
